Assays:
[1] = Accumulation of phosphoric acid derivatives investigated as technetium-99m diagnostic agents (bone, liver, RES); settings: in vivo
Source text: It is possible to use phosphoric acid derivatives, particularly organic phosphonic acid derivatives, for bone scintigraphy. Many compounds have been investigated in the search for derivatives suitable as a technetium-99m diagnostic agent for bone.

[2] = in vivo; cited from earlier work
[3] = Comparison of 99mTc TPB, 99mTc PTP and 99mTc phytate after intravenous injection to dogs; assay type: in vivo
[4] = Organ distribution of 99mTc-labeled substances in rats 30 minutes after injection as a function of the amount of substance administered; assay type: in vivo; settings: for Blood/ml / Kidneys / Liver / Lung / Remainder of body / Spleen / Thyroid / tissue uptake at 0.5 h: 30 min after injection, n = 3; for tissue uptake at 0.5 h: rat, in vivo, iv, 0.05 mg, read-out: Femur/g
Method: Assuming that 2-20 mg of TPB, ETP, PTP or phytate are administered to humans, and assuming that the weight of human is 80 kg, this corresponds to an amount administered of 25-250 μg/kg of body weight. Calculating on the basis of the body weight of rats weighing 200 g, then administration of 5-50 μg of TPB, ETP, PTP or phytate per rat exactly reflects the relationships.
Organ distribution of ^99m Tc TPB, ^99m TC ETP and ^99m Tc
phytate in rats (n = 3) 30
minutes after injection as a function of the amount of substance
(all data as a percentage of the amount of activity administered)

[5] = Lymphatic scintigraphy on dogs; assay type: in vivo, beagle dogs
Method: In order to check the utilizability of the new diagnostic agent for lymphatic scintigraphy, lymphatic scintigraphy using ^99m Tc TPB was carried out on dogs.
A TPB labeling unit which contained CaCl2 as described in Example 4 was prepared with 5 ml of ^99m Tc-pertechnetate solution which contained 5 mCi of ^99m Tc per ml. Adult beagle dogs each received 0.3-0.4 ml of this solution injected subcutaneously into the hind paw. The change in the distribution of radioactivity with time over the hind legs was then followed using a gamma camera for 4 hours. The site of injection was shielded with lead in each case.

[6] = Example 2: organ distribution in rats, frozen solution labeled with 99mTc; assay type: in vivo, Sprague-Dawley rats; settings: femoral vein
Method: 400 mg of 2,4,4-triphosphonobutyric acid are dissolved in about 30 ml of double-distilled water. The pH of the solution, which is about 1.7 after this, is then adjusted to pH 6 using 1N NaOH. 8 mg of SnCl2.2H2 O in 1 ml of 0.1N HCl are added to this solution, and the pH is again adjusted to 6 using 0.1N NaOH, and then the solution is made up to 40 ml. All the operations are carried out under a protective atmosphere of nitrogen gas. The solution thus obtained is frozen in individual 1 ml portions.
After 3 days, the solution is thawed and reacted with 1 ml of a ^99m Tc-pertechnetate solution which contains 4.44 MBq (120 μCi) of ^99m Tc. After 30 minutes, Sprague-Dawley rats weighing 200 g each receive 0.5 ml of this solution injected into the femoral vein. 3 animals are sacrificed with ether at 30 minutes and at 2 hours after the injection, and the organ distribution is determined.

[7] = second amount column (printed 50 μg)
[8] = third amount column (printed 50 μg)
[9] = all amounts of substance investigated

phytate [reference compound]
accumulation in bone [1]: higher
accumulation in the RES [1]: lower
accumulation of activity in the RES [2]: low compared with the products mentioned above
excretion of activity with the urine ([3]; dog, in vivo, iv, 0.5 h): 6.6 % of the test dose

O=C(O)C(CC(P(=O)(O)O)P(=O)(O)O)P(=O)(O)O (stereo not shown) [TPB, 2,4,4-triphosphonobutyric acid]
Blood/ml ([4]; (50 μg)): 0.05 percentage of the amount of ac
Kidneys ([4]; (50 μg)): 0.12 percentage of the amount of activity administered
Liver ([4]; (50 μg)): 95.8 percentage of the amount of activity administered
Lung ([4]; (50 μg)): 0.19 percentage of the amount of activity administered
Remainder of body ([4]; (50 μg)): 5.6 percentage of the amount of activity administered
Spleen ([4]; (50 μg)): 1.30 percentage of the amount of activity administered
Thyroid ([4]; (50 μg)): 0.03 percentage of the amount of activity administered
Blood/ml [4, 7]: 0.16 percentage of the amount of ac
Kidneys [4, 7]: 0.37 percentage of the amount of activity administered
Liver [4, 7]: 92.7 percentage of the amount of activity administered
Lung [4, 7]: 0.30 percentage of the amount of activity administered
Remainder of body [4, 7]: 11.5 percentage of the amount of activity administered
Spleen [4, 7]: 0.88 percentage of the amount of activity administered
Thyroid [4, 7]: 0.03 percentage of the amount of activity administered
Blood/ml [4, 8]: 0.19 percentage of the amount of ac
Kidneys [4, 8]: 0.39 percentage of the amount of activity administered
Liver [4, 8]: 88.7 percentage of the amount of activity administered
Lung [4, 8]: 0.29 percentage of the amount of activity administered
Remainder of body [4, 8]: 12.6 percentage of the amount of activity administered
Spleen [4, 8]: 0.99 percentage of the amount of activity administered
Thyroid [4, 8]: 0.03 percentage of the amount of activity administered
accumulation in the liver and spleen compared with phytate [4, 9]: markedly higher than that of phytate
accumulation of activity in the kidneys, blood, femur and remainder of the body compared with phytate [4, 9]: clearly lower than with phytate
suitability as diagnostic agent for visualization of RES-containing organs compared with 99mTc phytate ([4]; deduction from the animal experiments): unambiguously superior
tissue uptake at 0.5 h [4, 7]: 0.29 %ID/g
tissue uptake at 0.5 h [4, 8]: 0.3 %ID/g
accumulation in bone [1]: virtually not at all
accumulation in the liver [1]: very preferentially accumulated in the liver
suitability for lymphatic scintigraphy [5]: also suitable for lymphatic scintigraphy
excretion of activity with the urine ([3]; 30 min after injection, intravenous, dogs): 0.6 % of the test dose
excretion of activity with the urine, compared with phytate ([3]; intravenous, dogs): markedly less
decrease in activity via the liver after accumulation in the liver is complete ([3]; intravenous, dogs, compared with phytate): slower
Blood/ml ([6]; 30 min p.i.): 0.03 percentage of the dose adminis
Kidneys ([6]; 30 min p.i.): 1.74 percentage of the dose adminis
Liver ([6]; 30 min p.i.): 86.5 percentage of the dose adminis
Remainder of body ([6]; 30 min p.i.): 9.08 percentage of the dose adminis
Spleen ([6]; 30 min p.i.): 2.40 percentage of the dose adminis
Thyroid ([6]; 30 min p.i.): 0.05 percentage of the dose adminis
urine ([6]; 30 min p.i.): 1.75 percentage of the dose adminis
Blood/ml ([6]; 2 hours p.i.): 0.01 percentage of the dose adminis
Kidneys ([6]; 2 hours p.i.): 1.12 percentage of the dose adminis
Liver ([6]; 2 hours p.i.): 88.3 percentage of the dose adminis
Remainder of body ([6]; 2 hours p.i.): 8.27 percentage of the dose adminis
Spleen ([6]; 2 hours p.i.): 3.06 percentage of the dose adminis
Thyroid ([6]; 2 hours p.i.): 0.04 percentage of the dose adminis
urine ([6]; 2 hours p.i.): 2.02 percentage of the dose adminis
tissue uptake at 0.5 h ([6]; rat, bone, iv, 30 min p.i.): 0.17 %ID/g
tissue uptake at 2 h ([6]; rat, bone, iv, 2 hours p.i.): 0.22 %ID/g

Reference: patent US4693884A, “Technetium-99m triphosphonates and tetraphosphonates for the scintigraphic visualization of res-containing organs and lymph vessels, and a process for their preparation” (Hoechst Aktiengesellschaft, priority 1982, dated 1987)
